Earlier results on three compounds are cited in publication doi:10.1101/2023.05.15.540887, “Comparative analysis of drug-like EP300/CREBBP acetyltransferase inhibitors” (bioRxiv, 2023).

What all share (design): method as in ref 29 (a number printed in a supplementary file, which may have a reference list of its own: not looked up in the article's list)
One data set has as its system HCC-2998. Conditions: Colon HCC-2998; highest log conc -4.0; NCI-60 screen data; cited from earlier work.
In another data set the test system is SK-OV-3. As to conditions: Ovarian SK-OV-3; highest log conc -4.0; NCI-60 screen data; cited from earlier work.
The next data set concerns RPMI-8226. Conditions: Leukemia RPMI-8226; highest log conc -4.0; NCI-60 screen data; cited from earlier work.
The subject of the next data set is PC-3. As to conditions: Prostate PC-3; highest log conc -4.0; NCI-60 screen data; cited from earlier work.
For a further data set, the system named is HOP-92. As to conditions: Non-SmallCellLung HOP-92; highest log conc -4.0; NCI-60 screen data; cited from earlier work.
Another data set relates to HS578T. Conditions: Breast HS578T; highest log conc -4.0; NCI-60 screen data; cited from earlier work.
The next data set has as its system U251. As to conditions: CNS U251; highest log conc -4.0; NCI-60 screen data; cited from earlier work.
The next data set has as its system MDA-MB-231/ATCC. Conditions: Breast MDA-MB-231/ATCC; highest log conc -4.0; NCI-60 screen data; cited from earlier work.
In another data set the test system is NCI-H460. As to conditions: Non-SmallCellLung NCI-H460; highest log conc -4.0; NCI-60 screen data; cited from earlier work.
For the next data set, the system named is SK-MEL-2. As to conditions: Melanoma SK-MEL-2; highest log conc -4.0; NCI-60 screen data; cited from earlier work.
For another data set, the system named is NCI-H226. Conditions: Non-SmallCellLung NCI-H226; highest log conc -4.0; NCI-60 screen data; cited from earlier work.
The next data set deals with ACHN. Conditions: Renal ACHN; highest log conc -4.0; NCI-60 screen data; cited from earlier work.
In the next data set the test system is UO-31. Conditions: Renal UO-31; highest log conc -4.0; NCI-60 screen data; cited from earlier work.
A further data set has as its system HT29. As to conditions: Colon HT29; highest log conc -4.0; NCI-60 screen data; cited from earlier work.
A further data set has as its system BT-549. As to conditions: Breast BT-549; highest log conc -4.0; NCI-60 screen data; cited from earlier work.
Another data set deals with DU-145. As to conditions: Prostate DU-145; highest log conc -4.0; NCI-60 screen data; cited from earlier work.
The next data set has as its system MALME-3M. Conditions: Melanoma MALME-3M; highest log conc -4.0; NCI-60 screen data; cited from earlier work.
A further data set concerns HOP-62. Conditions: Non-SmallCellLung HOP-62; highest log conc -4.0; NCI-60 screen data; cited from earlier work.
Another data set deals with NCI/ADR-RES. Conditions: Ovarian NCI/ADR-RES; highest log conc -4.0; NCI-60 screen data; cited from earlier work.
A further data set relates to OVCAR-3. Conditions: Ovarian OVCAR-3; highest log conc -4.0; NCI-60 screen data; cited from earlier work.
The test system of another data set is LOXIMVI. As to conditions: Melanoma LOXIMVI; highest log conc -4.0; NCI-60 screen data; cited from earlier work.

Each structure is given as a SMILES string.

`COC(=O)N1c2ccc3c(nc(Cc4ccccc4)n3[C@H]3CCC[C@H](C(=O)O)C3)c2CC[C@@H]1C` [FT-6876]: the “GI50 AVGDATA” value with HCC-2998 is listed as -5.08; in the data set with SK-OV-3 it was -4.77; in the data set on RPMI-8226, -5.42; in the data set with PC-3, -5.25; with HOP-92, -5.79; in the data set on HS578T, -5.49. Also, the “GI50 AVGDATA” value is recorded as -4.77 in the data set with U251; -4.8 with MDA-MB-231/ATCC; -4.63 in the data set on NCI-H460; -4.46 in the data set with SK-MEL-2; -4.85 in the data set with NCI-H226; -4.77 with ACHN. Also, the “GI50 AVGDATA” value is given as -5.54 with UO-31; -5.26 with HT29; -4.31 in the data set on BT-549; -4.03 in the data set with DU-145; -5.21 with MALME-3M; -4.95 in the data set on HOP-62. For the same compound, the figures for the “GI50 AVGDATA” value with NCI/ADR-RES, in the data set with OVCAR-3 and in the data set with LOXIMVI were -4.19, -4.88 and -5.99, respectively.
Consider `Cc1sc2c(c1C)C(c1ccc(Cl)cc1)=N[C@@H](CC(=O)OC(C)(C)C)c1nnc(C)n1-2` [JQ-1], for which the “GI50 AVGDATA” value was -6.54 in the data set with HCC-2998; -6.49 with SK-OV-3; -7.4 with RPMI-8226; -5.96 in the data set on PC-3; -7.74 with HOP-92; -7.25 in the data set with HS578T. In addition, the “GI50 AVGDATA” value in the data set on U251 is reported as -5.91; in the data set with MDA-MB-231/ATCC, -6.52; with NCI-H460, -6.22; with SK-MEL-2, -5.27; in the data set on NCI-H226, -4.99; in the data set with ACHN, -6.3. The “GI50 AVGDATA” value with UO-31 is on record as -7.52; in the data set on HT29 it was -7.01; in the data set on BT-549, -5.51; in the data set on DU-145, -5.07; in the data set with MALME-3M, -5.32; with HOP-62, -6.92. Besides, the entries for the “GI50 AVGDATA” value in the data set on NCI/ADR-RES, with OVCAR-3 and with LOXIMVI were -6.4, -6.3 and -7.17, respectively.
For `CO[C@H]1CC[C@H](n2c([C@@H]3CCCC(=O)N3c3ccc(F)c(F)c3)nc3cc(-c4c(C)noc4C)ccc32)CC1` [inobrodib], the “GI50 AVGDATA” value with HCC-2998 is given as -5.38; in the data set with SK-OV-3, -5.39; in the data set on RPMI-8226 it was -6.15; with PC-3, -5.46; with HOP-92, -5.69; in the data set on HS578T, -5.68. Also, the “GI50 AVGDATA” value in the data set on U251 is -4.99; in the data set with MDA-MB-231/ATCC it was -5.07; in the data set on NCI-H460, -4.58; in the data set on SK-MEL-2 it was -4.94; in the data set with NCI-H226, -5.37; in the data set on ACHN, -5.32. In addition, the “GI50 AVGDATA” value is on record as -5.79 in the data set with UO-31; -5.59 with HT29; -4.99 in the data set on BT-549; -4.77 in the data set on DU-145; -5.76 with MALME-3M; -5.35 in the data set with HOP-62. The “GI50 AVGDATA” value in the data set with NCI/ADR-RES is on record as -4.87; in the data set with OVCAR-3, -4.98; with LOXIMVI, -5.38.
